US20120264796A1, “METHODS FOR MODULATING CIRCADIAN RHYTHMS” (THE SALK INSTITUTE FOR BIOLOGICAL STUDIES, priority 2009, published 2012)

Experiments:
Type in all cases: cell-based
[1] = tested on: wild type (AMPK+/+) mouse embryonic fibroblasts; assay: Circadian reverbα and dbp expression by quantitative PCR in serum-stimulated wild type fibroblasts; conditions: 25 mM glucose supplemented with 1 mM AICAR, after 2 hour 50% horse serum, compared with 0.5 mM glucose
Method: (§1) (A) Unsynchronized paired wild type (AMPK^+/+) or ampkα1^−/−; ampkα2^−/− (AMPK−/−) mouse embryonic fibroblasts were stimulated by 2 hour exposure to 50% horse serum followed by transfer to media containing 25 mM glucose, 0.5 mM glucose or 25 mM glucose supplemented with 1 mM AICAR. Quantitative PCR analysis was performed using cDNA samples collected at the indicated times following stimulation. Data represent the mean of two independent experiments, each analyzed in triplicate. (B) Fibroblasts stably expressing Bmal1-luciferase were cultured in media containing the indicated amounts of glucose with or without 2 mM AICAR. Typical results of continuous monitoring of luciferase activity are shown. (C and D) Quantitation of the circadian period (C) and amplitude (D) of Bmal1-driven luciferase activity from experiments performed as described in (B). Data in (C) and (D) represent the mean±standard deviation for four samples per condition. […]
(§2) FIG. 4A-B show disruption of AMPK alters circadian rhythms in MEFs. […] Quantitative PCR analysis was performed using cDNA samples prepared from lysates collected at the indicated times following stimulation. Data represent the mean±standard deviation of two or three independent experiments each analyzed in triplicate. […]

[2] = tested on: ampkα1−/−; ampkα2−/− (AMPK−/−) mouse embryonic fibroblasts; assay: Circadian reverbα and dbp expression by quantitative PCR in serum-stimulated MEFs lacking AMPK; conditions: 25 mM glucose supplemented with 1 mM AICAR
Method: as §1, §2

[3] = tested on: Fibroblasts stably expressing Bmal1-luciferase; assay: Continuous monitoring of Bmal1-driven luciferase activity in fibroblasts; conditions: media with 2 mM AICAR vs 25 mM glucose
Method: (A) Unsynchronized paired wild type (AMPK^+/+) or ampkα1^−/−; ampkα2^−/− (AMPK−/−) mouse embryonic fibroblasts were stimulated by 2 hour exposure to 50% horse serum followed by transfer to media containing 25 mM glucose, 0.5 mM glucose or 25 mM glucose supplemented with 1 mM AICAR. Quantitative PCR analysis was performed using cDNA samples collected at the indicated times following stimulation. Data represent the mean of two independent experiments, each analyzed in triplicate. (B) Fibroblasts stably expressing Bmal1-luciferase were cultured in media containing the indicated amounts of glucose with or without 2 mM AICAR. Typical results of continuous monitoring of luciferase activity are shown. (C and D) Quantitation of the circadian period (C) and amplitude (D) of Bmal1-driven luciferase activity from experiments performed as described in (B). Data in (C) and (D) represent the mean±standard deviation for four samples per condition. ANOVA analysis indicated a significant difference between categories. ** P<0.01 vs. samples cultured in 25 mM glucose in Scheffe's post-hoc analysis.
The Bmal1 promoter is repressed by REVERBα. Therefore, the effects of reducing glucose availability on circadian rhythms was examined using fibroblasts stably expressing luciferase under the control of a Bmal1 promoter. […]

## NC(=O)c1ncn([C@@H]2O[C@H](CO)[C@@H](O)[C@H]2O)c1N [AICAR, 5-amino-4-imidazolecarboxamide riboside]
[1]
  amplitude of circadian reverbα and dbp expression: mimicked the effects of glucose deprivation
[2]
  expression of reverbα and dbp: neither glucose deprivation nor AICAR treatment affected the expression of reverbα and dbp
[3]
  amplitude of Bmal1-luciferase expression: decreased the amplitude of Bmal1-luciferase expression
